This passage reports GI50 and TGI results from PubChem BioAssay (NCI).

Structures are written as SMILES. Where “and” joins values, the source holds several entries; their conditions need not be identical. Equal values may be shown once.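 1) Cells in 96-well plates. 2) Compound, 48 h, 5 concentrations. 3) Linear interpolation between surrounding doses. 4) Unreached endpoint = highest concentration. The concentration for 50% growth inhibition is given as GI50. TGI: concentration producing complete growth inhibition.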

Assay in all cases: inhibition of tumour cell growth, NCI panel, 48 h
Experiment [1] deals with 786-0 renal.
For experiment [2], the system named is A498 renal.
Experiment [3] concerns CAKI-1 renal.
Experiment [4] deals with EKVX NSCLC.
The subject of experiment [5] is IGROV1 ovarian.
Experiment [6] deals with MDA-MB-231 breast.
In experiment [7] the test system is NCI-H522 lung.
Experiment [8] deals with NCI/ADR-RES ovarian.
Experiment [9] deals with SW-620 colon.
Experiment [10] has as its system UACC-257 melanoma.

As for `COc1ccc(C(=O)c2ccc(OC)cc2OC)cc1`, the GI50 was 5.32 µM in [1]; 5.87 µM in [2]; 3.75 µM in [3]; 7.17 µM in [4]; 2.61 µM in [5]; 6.6 µM in experiment [6]. For the same compound, the GI50 is 1.06 µM in experiment [7], 1.59 µM in experiment [8], 2.96 µM in experiment [9] and 5 µM in experiment [10]. The TGI in [1] is over 100 µM; in experiment [2], over 100 µM; in [3] it was over 100 µM; in experiment [4], over 100 µM; in experiment [5], 40.9 µM; in experiment [6], 90.2 µM. Also, the TGI in experiment [7] is 4.38 µM; in experiment [8] it was 5.98 µM; in [9], over 100 µM; in experiment [10], over 100 µM.

In the case of `CC1=Cc2cc3[n-]c(cc4nc(cc5[n-]c(cc1n2)c(C)c5CCC(=O)O)C(CCC(=O)O)=C4C)cc3C.[Cu+2]`, the GI50 in [1] was > 1 µM and 21.1 µM; in experiment [2], > 1 µM and 16.2 µM; in [3], > 1 µM and 23.2 µM; in experiment [4], over 66.4 µM; in experiment [5], > 1 µM and 12.5 µM; in [6] it was 22.6 µM. Also, the GI50 was 8.84 µM in experiment [7]; 37.2 µM in experiment [8]; over 47.7 µM in experiment [9]; > 1 µM and 40.8 µM in [10]. For the same compound, the TGI in experiment [1] is > 1 µM and 54.5 µM; in [2], > 1 µM and 36.5 µM; in experiment [3], over 68.2 µM; in experiment [4], over 100 µM; in [5], > 1 µM and 35.9 µM; in [6] it was 50.3 µM. Besides, the TGI is 30.4 µM in experiment [7], over 100 µM in [8], over 79.6 µM in [9] and over 85.4 µM in [10].

Regarding `Cc1cc(-c2cc(C)c(O)c(C(C)(C)C)c2)cc(C(C)(C)C)c1O`, the TGI in [1] is 22.6 µM and 25.7 µM; in [2], 21.3 µM and 32.7 µM; in experiment [3], 22.7 µM and 27.7 µM; in experiment [4], 22.7 µM and 28.4 µM; in experiment [5], 41.6 µM and 24.3 µM; in experiment [6], 21.4 µM and 26.2 µM. The TGI in [7] was 22.5 µM and 28.2 µM; in [8] it was 23.5 µM and 28.2 µM; in [9], 25.1 µM and 70 µM; in experiment [10] it was 24.1 µM and 24.7 µM.

With `CC(=O)O[C@H]1C(=O)[C@@]2(C)[C@H]([C@H](OC(=O)c3ccccc3)[C@]3(O)C[C@H](OC(=O)[C@H](OC(=O)CCC(=O)OC4CCC(S/N=C(N)/N=C(\N)N(C)C)CC4)[C@@H](NC(=O)c4ccccc4)c4ccccc4)C(C)=C1C3(C)C)[C@]1(OC(C)=O)CO[C@@H]1C[C@@H]2O` (stereo not given in full), the GI50 in experiment [1] was 0.115 µM; in [2] it was 0.0148 µM; in experiment [3], 1.27 µM; in [4], 0.0269 µM; in experiment [5], 0.113 µM; in [6] it was 0.0249 µM. For the same compound, the GI50 in experiment [7] was 0.00553 µM; in [8], 1.82 µM; in [9] it was 0.0119 µM; in experiment [10], 0.0846 µM. For the same compound, the TGI in experiment [1] was over 50 µM; in experiment [2], over 50 µM; in experiment [3], over 50 µM; in experiment [4] it was over 50 µM; in experiment [5], over 50 µM; in experiment [6] it was over 31.4 µM. The TGI in experiment [7] was 0.0373 µM; in [8] it was over 24.4 µM; in [9] it was over 50 µM; in [10], over 50 µM.

For the compound `COc1cc(C(=O)O)ccc1NC(=O)[C@@H]1N[C@@H](CC(C)(C)C)[C@](C#N)(c2ccc(Cl)cc2F)[C@H]1c1cccc(Cl)c1F`, the GI50 in experiment [1] is 3.45 µM; in experiment [2] it was 0.132 µM; in experiment [3], 0.1 µM; in experiment [4], 6.51 µM; in [5], 2.21 µM; in experiment [6], 6.58 µM. The GI50 was 2.72 µM in experiment [7], 6.83 µM in experiment [8], 3.02 µM in experiment [9] and 0.145 µM in [10]. Besides, the TGI in experiment [1] is 18.4 µM; in experiment [2], 2.79 µM; in experiment [3], 7.01 µM; in [4], 24 µM; in [5], 17.3 µM; in [6], over 100 µM. Further, the TGI in [7] is 10.8 µM; in [8], 25.2 µM; in experiment [9], over 26.3 µM; in [10], 1.83 µM.

Turning to `Cc1c(N(C(=O)c2cc(-c3cc(Cl)ccc3C(=O)N3Cc4ccccc4C[C@H]3CN3CCOCC3)n(C)c2C)c2ccc(O)cc2)cc(C#N)n1C`, the GI50 in experiment [1] was 12.5 µM; in [2], 23.2 µM; in experiment [3], 6.35 µM; in [4], 48.4 µM; in experiment [5], 23.8 µM; in experiment [6], 20.2 µM. For the same compound, the GI50 was 20.4 µM in [7], 50.6 µM in [8], 34.4 µM in experiment [9] and 20.1 µM in experiment [10]. The TGI is 36.8 µM in [1]; 61.6 µM in experiment [2]; over 100 µM in [3]; over 100 µM in experiment [4]; over 100 µM in experiment [5]; over 100 µM in experiment [6]. In addition, the TGI in experiment [7], in [8], in [9] and in experiment [10] was over 100 µM throughout.
